# Experimental data: patent US20230391760A1, “HETEROCYCLIC GLP-1 AGONISTS” (Gasherbrum Bio, Inc., priority 2020, published 2023)
# Biological target: GLP-1 Receptor (Homo sapiens, UniProt P43220)
# Test: GLP-1R agonist cAMP stimulation assay (HEK293/GLP1R/CRE-LUC cells, cAMP dynamic 2 Kit)
# Format: cell-based
# Conditions: HEK293/CRE-Luc cell line stably expressing the GLP-1 Receptor, 30 min at 37° C.
# Method in brief: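 HEK293 cells stably expressing human GLP-1R with CRE-luciferase, 1000 cells/well in DPBS with 0.5 mM IBMX and 0.1% BSA, treated with compound in 1/2-log serial dilution for 30 min at 37 °C. cAMP then detected by HTRF (cAMP-d2 plus anti-cAMP cryptate), 1 h at room temperature in the dark.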
# Sequence of GLP-1 Receptor (P43220 24-463, species assumed): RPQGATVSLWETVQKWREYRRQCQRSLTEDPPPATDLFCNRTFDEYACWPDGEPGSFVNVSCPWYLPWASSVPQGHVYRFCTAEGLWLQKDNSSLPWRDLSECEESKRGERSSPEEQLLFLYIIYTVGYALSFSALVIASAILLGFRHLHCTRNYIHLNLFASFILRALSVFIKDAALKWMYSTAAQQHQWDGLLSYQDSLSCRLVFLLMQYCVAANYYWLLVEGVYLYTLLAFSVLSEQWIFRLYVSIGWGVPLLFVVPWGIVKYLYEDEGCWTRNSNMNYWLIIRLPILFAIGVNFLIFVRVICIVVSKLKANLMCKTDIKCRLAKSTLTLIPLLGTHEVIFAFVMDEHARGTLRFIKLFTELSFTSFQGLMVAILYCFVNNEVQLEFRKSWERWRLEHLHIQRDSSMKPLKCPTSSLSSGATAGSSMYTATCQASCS
row,EC50 [nM],Structure (SMILES)
1,1.2,"O=C(Nc1ccc2c(c1)nc(CN1CCC(c3cccc(OCc4ccc(Cl)cc4F)n3)CC1)n2C[C@@H]1CCO1)c1ccc(F)cn1 [Compound 190a, N-{2-[(4-{6-[(4-chloro-2-fluorophenyl)methoxy]pyridin-2-yl}piperidin-1-yl)methyl]-1-{[(2S)-oxetan-2-yl]methyl}-1H-1,3-benzodiazol-5-yl}-5-fluoropyridine-2-carboxamide]"
2,8.8,"Cc1cncc(C)c1C(=O)Nc1ccc2c(c1)nc(CN1CCC(c3cccc(OCc4ccc(Cl)cc4F)n3)CC1)n2C[C@@H]1CCO1 [Compound 191a, N-{2-[(4-{6-[(4-chloro-2-fluorophenyl)methoxy]pyridin-2-yl}piperidin-1-yl)methyl]-1-{[(2S)-oxetan-2-yl]methyl}-1H-1,3-benzodiazol-5-yl}-3,5-dimethylpyridine-4-carboxamide]"
3,6.2,"CC1(C)CCC(C(=O)Nc2ccc3c(c2)nc(CN2CCC(c4cccc(OCc5ccc(Cl)cc5F)n4)CC2)n3C[C@@H]2CCO2)CO1 (stereo partly drawn) [Compound 192a, N-{2-[(4-{6-[(4-chloro-2-fluorophenyl)methoxy]pyridin-2-yl}piperidin-1-yl)methyl]-1-{[(2S)-oxetan-2-yl]methyl}-1H-1,3-benzodiazol-5-yl}-6,6-dimethyloxane-3-carboxamide]"
4,0.23,"O=C(Nc1ccc2c(c1)nc(CN1CCC(c3cccc(OCc4ccc(Cl)cc4F)n3)CC1)n2C[C@@H]1CCO1)C1CC12CCC2 (stereo partly drawn) [Compound 193a, N-{2-[(4-{6-[(4-chloro-2-fluorophenyl)methoxy]pyridin-2-yl}piperidin-1-yl)methyl]-1-{[(2S)-oxetan-2-yl]methyl}-1H-1,3-benzodiazol-5-yl}spiro[2.3]hexane-1-carboxamide]"
5,0.47,"O=C(Nc1ccc2c(c1)nc(CN1CCC(c3cccc(OCc4ccc(Cl)cc4F)n3)CC1)n2C[C@@H]1CCO1)C(F)n1cccn1 (stereo partly drawn) [Compound 194a, N-{2-[(4-{6-[(4-chloro-2-fluorophenyl)methoxy]pyridin-2-yl}piperidin-1-yl)methyl]-1-{[(2S)-oxetan-2-yl]methyl}-1H-1,3-benzodiazol-5-yl}-2-fluoro-2-(1H-pyrazol-1-yl)acetamide]"
6,0.63,"CC(C(=O)Nc1ccc2c(c1)nc(CN1CCC(c3cccc(OCc4ccc(Cl)cc4F)n3)CC1)n2C[C@@H]1CCO1)n1ccnc1 (stereo partly drawn) [Compound 195a, N-{2-[(4-{6-[(4-chloro-2-fluorophenyl)methoxy]pyridin-2-yl}piperidin-1-yl)methyl]-1-{[(2S)-oxetan-2-yl]methyl}-1H-1,3-benzodiazol-5-yl}-2-(1H-imidazol-1-yl)propanamide]"
7,1.1,"COC1(C(=O)Nc2ccc3c(c2)nc(CN2CCC(c4cccc(OCc5ccc(Cl)cc5F)n4)CC2)n3C[C@@H]2CCO2)CCCOC1 (stereo partly drawn) [Compound 196a, N-{2-[(4-{6-[(4-chloro-2-fluorophenyl)methoxy]pyridin-2-yl}piperidin-1-yl)methyl]-1-{[(2S)-oxetan-2-yl]methyl}-1H-1,3-benzodiazol-5-yl}-3-methoxyoxane-3-carboxamide]"
8,4.3,"O=C(Nc1ccc2c(c1)nc(CN1CCC(c3cccc(OCc4ccc(Cl)cc4F)n3)CC1)n2C[C@@H]1CCO1)C1CCC2(CCC2)CO1 (stereo partly drawn) [Compound 197a, N-{2-[(4-{6-[(4-chloro-2-fluorophenyl)methoxy]pyridin-2-yl}piperidin-1-yl)methyl]-1-{[(2S)-oxetan-2-yl]methyl}-1H-1,3-benzodiazol-5-yl}-6-oxaspiro[3.5]nonane-7-carboxamide]"
9,12,"CC1OC2(C(=O)Nc3ccc4c(c3)nc(CN3CCC(c5cccc(OCc6ccc(Cl)cc6F)n5)CC3)n4C[C@@H]3CCO3)CCC1CC2 (stereo partly drawn) [Compound 198a, N-{2-[(4-{6-[(4-chloro-2-fluorophenyl)methoxy]pyridin-2-yl}piperidin-1-yl)methyl]-1-{[(2S)-oxetan-2-yl]methyl}-1H-1,3-benzodiazol-5-yl}-3-methyl-2-oxabicyclo[2.2.2]octane-1-carboxamide]"
10,7.4,"O=C(Nc1ccc2c(c1)nc(CN1CCC(c3cccc(OCc4ccc(Cl)cc4F)n3)CC1)n2C[C@@H]1CCO1)C1(C2CC2)CCCO1 (stereo partly drawn) [Compound 199a, N-{2-[(4-{6-[(4-chloro-2-fluorophenyl)methoxy]pyridin-2-yl}piperidin-1-yl)methyl]-1-{[(2S)-oxetan-2-yl]methyl}-1H-1,3-benzodiazol-5-yl}-2-cyclopropyloxolane-2-carboxamide]"
11,0.35,"O=C(Nc1ccc2c(c1)nc(CN1CCC(c3cccc(OCc4ccc(Cl)cc4F)n3)CC1)n2C[C@@H]1CCO1)c1cncnc1 [Compound 200a, N-{2-[(4-{6-[(4-chloro-2-fluorophenyl)methoxy]pyridin-2-yl}piperidin-1-yl)methyl]-1-{[(2S)-oxetan-2-yl]methyl}-1H-1,3-benzodiazol-5-yl}pyrimidine-5-carboxamide]"
12,3.1,"O=C(Nc1ccc2c(c1)nc(CN1CCC(c3cccc(OCc4ccc(Cl)cc4F)n3)CC1)n2C[C@@H]1CCO1)[C@@H]1COC2(CCC2)C1 [Compound 201a, (7S)—N-{2-[(4-{6-[(4-chloro-2-fluorophenyl)methoxy]pyridin-2-yl}piperidin-1-yl)methyl]-1-{[(2S)-oxetan-2-yl]methyl}-1H-1,3-benzodiazol-5-yl}-5-oxaspiro[3.4]octane-7-carboxamide]"
13,6,"CN1CCCC(C(=O)Nc2ccc3c(c2)nc(CN2CCC(c4cccc(OCc5ccc(Cl)cc5F)n4)CC2)n3C[C@@H]2CCO2)C1 (stereo partly drawn) [Compound 202a, N-{2-[(4-{6-[(4-chloro-2-fluorophenyl)methoxy]pyridin-2-yl}piperidin-1-yl)methyl]-1-{[(2S)-oxetan-2-yl]methyl}-1H-1,3-benzodiazol-5-yl}-1-methylpiperidine-3-carboxamide]"
14,3.2,"O=C(Nc1ccc2c(c1)nc(CN1CCC(c3cccc(OCc4ccc(Cl)cc4F)n3)CC1)n2C[C@@H]1CCO1)C1CCCNC1 (stereo partly drawn) [Compound 203a, N-{2-[(4-{6-[(4-chloro-2-fluorophenyl)methoxy]pyridin-2-yl}piperidin-1-yl)methyl]-1-{[(2S)-oxetan-2-yl]methyl}-1H-1,3-benzodiazol-5-yl}piperidine-3-carboxamide]"
15,0.84,"O=C(Nc1ccc2c(c1)nc(CN1CCC(c3cccc(OCc4ccccc4)n3)CC1)n2C[C@@H]1CCO1)c1cccnc1 [Compound 204a, N-[2-({4-[6-(benzyloxy)pyridin-2-yl]piperidin-1-yl}methyl)-1-{[(2S)-oxetan-2-yl]methyl}-1H-1,3-benzodiazol-5-yl]pyridine-3-carboxamide]"
16,2.8,"O=C(Nc1ccc2c(c1)nc(CN1CCC(c3cccc(OCc4ccc(Cl)cc4F)n3)CC1)n2C[C@@H]1CCO1)N1CCC(F)(F)C1 [Compound 205a, N-{2-[(4-{6-[(4-chloro-2-fluorophenyl)methoxy]pyridin-2-yl}piperidin-1-yl)methyl]-1-{[(2S)-oxetan-2-yl]methyl}-1H-1,3-benzodiazol-5-yl}-3,3-difluoropyrrolidine-1-carboxamide]"
17,0.78,"O=C(Nc1ccc2c(c1)nc(CN1CCC(c3cccc(OCc4ccc(Cl)cc4F)n3)CC1)n2C[C@@H]1CCO1)N1CCC(F)C1 (stereo partly drawn) [Compound 206a, N-{2-[(4-{6-[(4-chloro-2-fluorophenyl)methoxy]pyridin-2-yl}piperidin-1-yl)methyl]-1-{[(2S)-oxetan-2-yl]methyl}-1H-1,3-benzodiazol-5-yl}-3-fluoropyrrolidine-1-carboxamide]"
18,0.39,"O=C(Nc1ccc2c(c1)nc(CN1CCC(c3cccc(OCc4ccc(Cl)cc4F)n3)CC1)n2C[C@@H]1CCO1)N1CCC(O)C1 (stereo partly drawn) [Compound 207a, N-{2-[(4-{6-[(4-chloro-2-fluorophenyl)methoxy]pyridin-2-yl}piperidin-1-yl)methyl]-1-{[(2S)-oxetan-2-yl]methyl}-1H-1,3-benzodiazol-5-yl}-3-hydroxypyrrolidine-1-carboxamide]"
19,1.8,"CNc1c(Nc2ccc3c(c2)nc(CN2CCC(c4cccc(OCc5ccc(Cl)cc5F)n4)CC2)n3C[C@@H]2CCO2)c(=O)c1=O [Compound 208a, 3-({2-[(4-{6-[(4-chloro-2-fluorophenyl)methoxy]pyridin-2-yl}piperidin-1-yl)methyl]-1-{[(2S)-oxetan-2-yl]methyl}-1H-1,3-benzodiazol-5-yl}amino)-4-(methylamino)cyclobut-3-ene-1,2-dione]"
20,3.2,"Fc1cc(Cl)ccc1COc1cccc(C2CCN(Cc3nc4cc(-c5cn(C6CCCOC6)nn5)ccc4n3C[C@@H]3CCO3)CC2)n1 (stereo partly drawn) [Compound 209a, 2-[(4-{6-[(4-chloro-2-fluorophenyl)methoxy]pyridin-2-yl}piperidin-1-yl)methyl]-5-[1-(oxan-3-yl)-1H-1,2,3-triazol-4-yl]-1-{[(2S)-oxetan-2-yl]methyl}-1H-1,3-benzodiazole]"
21,4.2,"Cc1cn(-c2ccc3c(c2)nc(CN2CCC(c4cccc(OCc5ccc(Cl)cc5F)n4)CC2)n3C[C@@H]2CCO2)nn1 [Compound 210a, 2-[(4-{6-[(4-chloro-2-fluorophenyl)methoxy]pyridin-2-yl}piperidin-1-yl)methyl]-5-(4-methyl-1H-1,2,3-triazol-1-yl)-1-{[(2S)-oxetan-2-yl]methyl}-1H-1,3-benzodiazole]"
22,3.6,"Fc1cc(Cl)ccc1COc1cccc(C2CCN(Cc3nc4cc(-n5cc(C6CCCOC6)nn5)ccc4n3C[C@@H]3CCO3)CC2)n1 (stereo partly drawn) [Compound 211a, 2-[(4-{6-[(4-chloro-2-fluorophenyl)methoxy]pyridin-2-yl}piperidin-1-yl)methyl]-5-[4-(oxan-3-yl)-1H-1,2,3-triazol-1-yl]-1-{[(2S)-oxetan-2-yl]methyl}-1H-1,3-benzodiazole]"
23,7.5,"Nc1cccc(-c2ccc3c(c2)nc(CN2CCC(c4cccc(OCc5ccc(Cl)cc5F)n4)CC2)n3C[C@@H]2CCO2)n1 [Compound 212a, 6-{2-[(4-{6-[(4-chloro-2-fluorophenyl)methoxy]pyridin-2-yl}piperidin-1-yl)methyl]-1-{[(2S)-oxetan-2-yl]methyl}-1H-1,3-benzodiazol-5-yl}pyridin-2-amine]"
